Data set [1] concerns A2780/Taxol. Briefly: Cytotoxicity against human Paclitaxel-resistant A2780 cells assessed as metabolic activity at 10 nM measured after 72 hrs by MTT assay relative to control. In kind it is functional.
The subject of data set [2] is Docetaxel-resistant DU145 cell. Briefly: Enhancement of docetaxel-induced anti-metabolic activity against human Docetaxel-resistant DU145 cell assessed as reduction in metabolic activity at 10 uM measured after 72 hrs by MTT assay. The class given is functional, cell-based.
Data set [3] has as its system K562-r. Briefly: Inhibition of STAT5 phosphorylation in human K562-r cells at 4 uM measured after 72 hrs by Western blotting based immunoassay. In kind it is cell-based.
Data set [4] concerns A2780/Taxol. The experiment in a line: Inhibition of side population phenotype in human Paclitaxel-resistant A2780 cells expressing ABCB1 at 10 uM incubated for 90 mins by DCV staining based flow cytometric analysis. In kind it is functional, cell-based. On the technique in general: Flow cytometry measures light scatter and fluorescence of single cells or particles in a stream.

Data set [5] has as its system PBMC. The experiment in a line: Effect on colony formation in human PBMC derived from healthy donors at 10 uM measured after 2 weeks in presence of imatinib by inverted microscopic analysis. In kind it is functional, cell-based.
The test system of data set [6] is MCF7. Briefly: Inhibition of STAT5 phosphorylation in human MCF7 cells at 10 uM incubated for 72 hrs by Western blotting based immunoassay. The class given is cell-based.
The subject of data set [7] is A549. Briefly: Inhibition of STAT5 phosphorylation in human A549 cells at 10 uM incubated for 72 hrs by Western blotting based immunoassay. The class given is cell-based. For orientation: Immunoblotting shows a protein as a band on a membrane.
Data set [8] is described as follows: Apparent permeability across basolateral to apical side in human Caco-2 cells at 10 uM by LC-MS/MS analysis.
Data set [9] has as its system A549. The experiment in a line: Inhibition of side population phenotype in human A549 cells expressing ABCC1 at 10 uM incubated for 90 mins by DCV staining based flow cytometric analysis. The class given is functional, cell-based.
Data set [10] can be described thus: Inhibition of side population phenotype in human K562-r cells at 10 uM incubated for 90 mins by DCV staining based flow cytometric analysis relative to control. The note with it: K-562R. The class given is functional.
Data set [11] concerns K-562R. Briefly: Effect on ABCB1 protein expression in human K562-r cells at 4 uM incubated for 72 hrs by Western blotting based immunoassay. The class given is functional, cell-based.
For data set [12], the system named is A2780/Taxol. The experiment in a line: Sensitization of paclitaxel-induced cytotoxicity against human Paclitaxel-resistant A2780 cells assessed as reduction in metabolic activity at 10 uM measured after 72 hrs by MTT assay. The class given is functional, cell-based.
Data set [13] has as its system Docetaxel-resistant PC-3 cell. The experiment in a line: Enhancement of docetaxel-induced anti-metabolic activity against human Docetaxel-resistant PC-3 cell assessed as reduction in metabolic activity at 10 uM measured after 72 hrs by MTT assay. The class given is functional, cell-based. For orientation: Formazan colour is commonly taken as a measure of viable cells.

The subject of data set [14] is K-562R. Briefly: Inhibition of side population phenotype in human K562-r cells at 0.1 to 10 uM incubated for 90 mins by DCV staining based flow cytometric analysis. In kind it is functional, cell-based. The note with it: dose 0.1-10 µM.
The subject of data set [15] is A2780/Taxol. The experiment in a line: Effect on STAT5 protein expression in human Paclitaxel-resistant A2780 cells expressing ABCB1 at 10 uM incubated for 72 hrs by Western blotting based immunoassay. The class given is functional, cell-based.
In data set [16] the test system is PBMC. The experiment in a line: Inhibition of colony formation in human PBMC derived from TKI naive CML patients assessed as reduction in number of colonies at 1 uM incubated for 14 days in presence of imatinib by inverted microscopic analysis. The note with it: time 14.0 day. In kind it is functional, cell-based.
For data set [17], the system named is K562-r. Briefly: Effect on STAT5 phosphorylation in human K562-r cells at 4 uM measured after 6 hrs by Western blotting based immunoassay. In kind it is cell-based.
Data set [18] has as its system PBMC. The experiment in a line: Effect on colony formation in human PBMC derived from healthy donors at 10 uM measured after 2 weeks by inverted microscopic analysis. The class given is functional, cell-based.
The test system of data set [19] is Docetaxel-resistant DU145 cell. Briefly: Inhibition of side population phenotype in human Docetaxel-resistant DU145 cell expressing ABCB1 at 10 uM incubated for 90 mins by DCV staining based flow cytometric analysis. In kind it is functional.
For data set [20], the system named is K562-r. Briefly: Inhibition of STAT5 phosphorylation in human K562-r cells at 4 uM measured after 6 hrs in presence of imatinib by Western blotting based immunoassay. The class given is cell-based.
In the next data set the test system is COS-7. Briefly: Cytotoxicity against African green monkey COS-7 cells assessed as reduction in metabolic activity at 10 uM incubated for 72 hrs by MTT assay. In kind it is toxicity, cell-based. The note with it: chlorocebus aethiops, cos-7, 72 h.
Data set [21] relates to K-562R. Briefly: Restoration of imatinib accumulation in human K562-r cells at 10 uM preincubated with compound for 1 hrs followed by imatinib addition and measured after 2 hrs by UHPLC-SIM-MS analysis. In kind it is functional, cell-based. The note with it: time 3.0 hrs.
In data set [22] the test system is A549. Briefly: Effect on STAT5 protein expression in human A549 cells at 10 uM incubated for 72 hrs by Western blotting based immunoassay. In kind it is functional, cell-based.
A short description of data set [23]: Apparent permeability across apical to basolateral side in human Caco-2 cells at 10 uM by LC-MS/MS analysis.
In data set [24] the test system is Docetaxel-resistant PC-3 cell. The experiment in a line: Inhibition of side population phenotype in human Docetaxel-resistant PC-3 cell expressing ABCB1 at 10 uM incubated for 90 mins by DCV staining based flow cytometric analysis. In kind it is functional.
In data set [25] the test system is Paclitaxel-resistant IGROV-1 cell. The experiment in a line: Inhibition of side population phenotype in human Paclitaxel-resistant IGROV-1 cells expressing ABCB1 at 10 uM incubated for 90 mins by DCV staining based flow cytometric analysis. The class given is functional.
Data set [26] deals with Paclitaxel-resistant A2780. The experiment in a line: Inhibition of STAT5 phosphorylation in human Paclitaxel-resistant A2780 cells expressing ABCB1 at 10 uM incubated for 72 hrs by Western blotting based immunoassay. In kind it is cell-based.
Data set [27] deals with Paclitaxel-resistant IGROV-1 cell. Briefly: Enhancement of paclitaxel-induced anti-metabolic activity in human Paclitaxel-resistant IGROV-1 cells assessed as reduction in metabolic activity upto 300 nM measured after 72 hrs by MTT assay. The class given is functional, cell-based.
Data set [28] has the same test system. Briefly: Inhibition of STAT5 phosphorylation in human Paclitaxel-resistant IGROV-1 cells expressing ABCB1 at 10 uM incubated for 72 hrs by Western blotting based immunoassay.
The test system of data set [29] is MCF7. Briefly: Inhibition of side population phenotype in human MCF7 cells expressing ABCG2 at 10 uM incubated for 90 mins by DCV staining based flow cytometric analysis. In kind it is functional, cell-based.
Data set [30] concerns MCF7. The experiment in a line: Effect on STAT5 protein expression in human MCF7 cells at 10 uM incubated for 72 hrs by Western blotting based immunoassay. The class given is functional, cell-based.
The subject of data set [31] is K-562R. The experiment in a line: Cytotoxicity against human K562-r cells assessed as reduction in metabolic activity at 10 uM incubated for 72 hrs by MTT assay. In kind it is functional, cell-based.

The source made the active and inactive calls. No cut-off for these calls is given here.

For `CC(=O)O[C@H]1C(=O)[C@@]2(C)[C@H]([C@H](OC(=O)c3ccccc3)[C@]3(O)C[C@H](OC(=O)[C@H](O)[C@@H](NC(=O)c4ccccc4)c4ccccc4)C(C)=C1C3(C)C)[C@]1(OC(C)=O)CO[C@@H]1C[C@@H]2O` [PACLITAXEL], the Activity with A2780/Taxol [1] is >80%.
Broadly, the inhibition is the change of the read-out against control, counted positive when it falls. The term Papp B→A denotes the apparent permeability from the basolateral to the apical side of a cell layer. In general, Papp A→B refers to the apparent permeability from the apical to the basolateral side of a cell layer. Take `CCCc1nc2c(C)cc(-c3nc4ccccc4n3C)cc2n1Cc1ccc(-c2ccccc2C(=O)OC)cc1`: the result (in [2]; in the data set on A2780/Taxol [12]; in the data set with K-562R [21]) was Active. The inhibition result with K562-r [3] is given as “Active; Lesser Effect Observed”; with K-562R [14], “Active; Similar To Valspodar”. Also, the inhibition result (with A2780/Taxol [4]; with MCF7 [6]; in the data set on A549 [7]; in the data set with A549 [9]; in the data set with PBMC [16]; in [19]) was “Active” throughout. In addition, the inhibition entry (in the data set with K562-r [20]; in [24]; in [25]; in data set [26]; in the data set with MCF7 [29]) was “Active” in each case. For the same compound, the result with PBMC [5], in the data set on K-562R [11], with A2780/Taxol [15], in the data set on K562-r [17], in the data set with PBMC [18] and in the data set with A549 [22] was inactive. Further, the result (in data set [27]; in the data set with MCF7 [30]; with K-562R [31]) was inactive. Moreover, the apparent permeability from basolateral to apical (Papp B→A) at 10 µM in [8] turned out to be 0.2 ×10⁻⁶ cm/s. Further, testing at 10 µM in data set [10] gave an inhibition of 100%. For the same compound, the Activity result in data set [13] is “Active; Marginal Activity Observed”; in the data set on COS-7 it was “Non-toxic”. Besides, the apical-to-basolateral permeability (Papp A→B) at 10 µM in data set [23] is 0.1 ×10⁻⁶ cm/s. In data set [28], the inhibition entry was “inactive”.

The values are drawn from ChEMBL document CHEMBL6087448, “Eradication of Therapy-Resistant Cancer Stem Cells by Novel Telmisartan Derivatives” (J Med Chem, 2025).
